Assays:
[1] = molecular target: integrin receptor mediating RGD-dependent, not β1 integrin-mediated attachment of chicken SL29 fibroblasts and DRG cells; assay: cell-based or functional assay
[2] = molecular target: β1 integrin on chicken SL29 fibroblasts and chick dorsal root ganglion neurons (chicken) (UniProt P07228); assay: cell-based or functional assay
[3] = system: dorsal root ganglia (DRG) neurons; assay: Two-dimensional neurite outgrowth assay, DRG, 15 hours; format: cell-based, chicken; details: 15 hours
Procedure: (§1) Dorsal root ganglia (DRG) cells or forebrain neurons were prepared for the cell attachment assays as follows. DRG from day 6 chicken embryos or forebrains from day 7 chicken embryos were dissected into HBSS. The tissue was pelleted by centrifugation and resuspended in CMF-HBSS and incubated at 37° C. for 10 minutes. The tissue was pelleted again and resuspended in CMF-HBSS containing 0.08% trypsin and allowed to trypsinize for 20 minutes at 37° C. An equal volume of DMEM/F12, 10% FCS, 20 ng/ml nerve growth factor (NGF) (for DRG cells only), 10 μg/ml gentamycin (10% medium) was added, and the tissue was pelleted and resuspended in 2 ml of the 10% medium. The cells were triturated with a fire-polished Pasteur pipette for 15 strokes, and the cells were washed and resuspended in 10 ml of 10% medium. DRG cells were plated in a 10 cm tissue culture dish and incubated for 1 hour at 37° C. in 5% CO2, to allow for attachment of contaminating fibroblasts.
(§2) After replating, the cells were harvested, pelleted and washed three times in DMEM/F12, 1% fetal calf serum (FCS), 20 ng/ml NGF (for DRG cells only), 10 μg/ml gentamycin (1% medium), and the number of cells determined using a hemocytometer. The DRG were resuspended to a density of 6×10^5 cells/ml in attachment buffer. The neurons were resuspended to a density of 2×10^4 cells/ml in 1% medium and added to substrates and placed at 37° C., 5% CO2 for 15 hours.
(§3) After the growth period, the dishes were gently rinsed with PBS to remove unbound cells, fixed with 1% glutaraldehyde, and viewed by phase contrast microscopy. Ten to forty cells were analyzed for each substrate. Cells were judged as neurite-bearing if the length of the processes was greater than one cell diameter. All cells with neurites were photographed with a 20× objective and total neurite length per neurite-bearing cell was derived from the photographic prints. Percentage of neuronal sprouting was calculated from at least six experiments. Neurite length was calculated from at least three experiments.
This extensive neurite outgrowth after 40 hours made quantitation of the percentage of neurite-bearing cells and neurite length difficult. To analyze quantitatively the effect of CT/TN fusion proteins on DRG neurite outgrowth, DRG cells were therefore plated at low density on CT/TN or CT/TN fragments and analyzed after 15 hours in culture for the percentage of cells that sprouted neurites greater than one cell diameter and for the everage neurite length per neuron. These conditions enhanced the number of isolated cells and discouraged the cell-cell interactions and fasciculation that occurred in the long-term cultures.
The proteins used in the neurite outgrowth assays are the same as those used in the cell attachment assays. […] In addition, poly-L-lysine was adsorbed to the solid support. […] Any cells adhering to the solid support were examined for sprouting and neurite length as defined herein.
Proteins used in the neurite outgrowth assays were prepared as described in Example 5.A.2.
Dorsal root ganglia (DRG) from day 6 chicken embryos were prepared as described in Example 5.A.4. For the neurite outgrowth assays, the DRG were resuspended at a density of 2×10^4 cells/ml in 1% medium, added to solid support, and placed at 37° C. in 5% CO2 for 15 hours. After the attachment and growth period, the dishes were gently rinsed with PBS to remove unbound cells, fixed with 1% (v/v) glutaraldehyde, and viewed by phase contrast microscopy. Ten to thirty cells were analyzed for each adsorbed protein spot. Cells were judged as neurite-bearing if the length of the processes were greater than one cell diameter. All cells with neurites were photographed with a 40× objective and the total neurite length per neurite-bearing cell was derived from the prints. The percent of cells that were sprouting and the average neurite length was derived from six and three independent experiments, respectively. […]

[4] = system: neurons from chick forebrain; assay: CNS neurite outgrowth, forebrain neurons, 7 hours; format: cell-based; details: 7 hour growth period
Procedure: as §1, §2, §3
To investigate whether CNS neurons could also extend neurites on CT/TN and CT/TN fragments, neurons from chick forebrain were plated at low density on CT/TN, CT/TN fragments and polylysine, and analyzed for neurite outgrowth after a 7 hour growth period (a time period found to be optimal for stable neurite outgrowth from these cells). The lengths of neurites on substrates that supported sprouting were essentially the same for the forebrain neurons and were therefore not quantitated further.

[5] = system: chicken fibroblast cell line SL29; assay: Cell attachment assay, fibroblasts on protein-coated solid support; format: cell-based; details: CT coated at 20 μg/ml, binding fragments at 0.75 μM, non-binding at three times that, 1 hour
Procedure: In the cell attachment assays, a single cell suspension was allowed to settle for a fixed period of time onto a solid support that has been coated with the different CT-derived proteins to be tested for cell attachment (Friedlander, et al., J. Cell Biol. 107: 2329-2340 (1988)). After removing the unbound and loosely bound cells by washing, the attachment and morphology of those cells remaining on the dish were analyzed.
Solid supports, consisting of a circular array of CT or CT:GST fusion proteins bound to a dish, were prepared as follows for the cell attachment assay.
For the initial study, non tissue-culture treated polystyrene plates (Falcon 1008) were spotted with 2 μl of a 0.5 to 1.5 μM solution of CT in PBS for 30 minutes to coat a specific area on the dish with CT. CT was isolated from chicken brain or from fibroblast culture supernatant as described in Crossin, PNAS 88: 11403-11407 (1991) and Hoffman et al., J. Cell Biol. 106: 519-532 (1988). CT was placed in a circular array near the center of the dish and incubated at 37° C. for 30 minutes. After CT had adsorbed to the dish, the central portion of the dish was washed once with 250 μl of 20% (w/v) BSA in PBS. Non-specific binding sites on the dish were then blocked with 250 μl of 20% (w/v) BSA in PBS by incubation for 2 to 3 hours at room temperature.
For the subsequent study with the CT:GST fusion proteins, non tissue-culture treated polystyrene plates (Falcon 1008) were spotted with 2 μl of a 0.5 to 1.5 μM solution of CT:GST fusion protein in PBS as prepared in Example 5.A.2 or GST in PBS for 30 minutes to coat a specific area on the dish with CT:GST fusion protein or GST. The proteins to be tested were placed in a circular array near the center of the dish and incubated at 37° C. for 30 minutes. After the proteins adsorbed to the dish, the central portion of the dish was washed once with 250 μl of 20% (w/v) BSA in PBS. Non-specific binding sites on the dish were then blocked with 250 μl of 20% (w/v) BSA in PBS by incubation for 2 to 3 hours at room temperature.
The chicken fibroblast cell line SL29 (ATCC CRL 1590) was grown to confluence in Dulbecco's Minimum Essential Medium (DMEM; Gibco-BRL, Gaithersburg, Mass.) with 10% (v/v) fetal calf serum (FCS; Gibco-BRL) with penicillin and streptomycin. The cells were passaged the night prior to the assay and seeded at a density of 1:2. Cells were harvested in calcium, magnesium-free Hank's balanced salt solution (CMF-HBSS, Gibco-BRL) with 20 mM Hepes buffer and 5 mM EDTA. Harvested cells were washed in attachment buffer (CMF-HBSS with 10 mM Hepes, 1 mM CaCl2, 1 mM MgCl2, 0.1 mM MnCl2, and 2% (w/v) bovine serum albumin (BSA)) three times. The number of cells was quantitated by counting the cells in a hemocytometer. The cells were resuspended in attachment buffer to a density of 6×10^5 cells/ml.
Chicken fibroblasts, DRG, and solid supports (dishes) coated with CT for use in the cell attachment assays were prepared as described in Examples 5.A.2-4, respectively. The chicken fibroblasts and DRG at a density of 6×10^5 cells/ml were added to the prepared dishes and incubated at 37° C. in 5% CO2 for 1 hour. The dishes were then washed three times in PBS with gentle swirling to remove unattached cells, fixed in 1% glutaraldehyde in PBS, and viewed by phase contrast microscopy. The number of bound cells was determined using a 10× objective with an eyepiece reticle. The number of cells was determined in four fields for each fusion protein dot as the number of cells bound per […]. CT was tested in triplicate. The number of cells bound for CT was expressed as the average of the twelve measurements±standard deviation […].
CT, coated at a concentration of 20 μg/ml, was used as a solid support for SL29 fibroblast attachment. […] Fragments of CT were generated using the pGEX fusion protein system, as described in Example 1. The cell attachment assay was performed essentially as described above for the cell attachment assay to intact CT. […]

DRG cells = assay: DRG neurite outgrowth, 40 hour culture, morphology; format: cell-based, chicken; details: DRG cells cultured 40 hours
Procedure: In order to assess the effect to the cell binding regions of CT/TN on the outgrowth of neurites from PNS neurons, DRG cells were cultured for 40 hours on popylysine, CTfn3, CTfn6, CTfg, and CTfn3-CTfn6 mixed substrates. The cultures were then fixed and the cell and neurite morphology was analyzed by phase contrast microscopy. The cells were plated on plastic substrates coated with the same concentrations of CTITN and fusion proteins used in the attachment assay.

Sequence of UniProt P07228 (P07228 25-803, form in doubt): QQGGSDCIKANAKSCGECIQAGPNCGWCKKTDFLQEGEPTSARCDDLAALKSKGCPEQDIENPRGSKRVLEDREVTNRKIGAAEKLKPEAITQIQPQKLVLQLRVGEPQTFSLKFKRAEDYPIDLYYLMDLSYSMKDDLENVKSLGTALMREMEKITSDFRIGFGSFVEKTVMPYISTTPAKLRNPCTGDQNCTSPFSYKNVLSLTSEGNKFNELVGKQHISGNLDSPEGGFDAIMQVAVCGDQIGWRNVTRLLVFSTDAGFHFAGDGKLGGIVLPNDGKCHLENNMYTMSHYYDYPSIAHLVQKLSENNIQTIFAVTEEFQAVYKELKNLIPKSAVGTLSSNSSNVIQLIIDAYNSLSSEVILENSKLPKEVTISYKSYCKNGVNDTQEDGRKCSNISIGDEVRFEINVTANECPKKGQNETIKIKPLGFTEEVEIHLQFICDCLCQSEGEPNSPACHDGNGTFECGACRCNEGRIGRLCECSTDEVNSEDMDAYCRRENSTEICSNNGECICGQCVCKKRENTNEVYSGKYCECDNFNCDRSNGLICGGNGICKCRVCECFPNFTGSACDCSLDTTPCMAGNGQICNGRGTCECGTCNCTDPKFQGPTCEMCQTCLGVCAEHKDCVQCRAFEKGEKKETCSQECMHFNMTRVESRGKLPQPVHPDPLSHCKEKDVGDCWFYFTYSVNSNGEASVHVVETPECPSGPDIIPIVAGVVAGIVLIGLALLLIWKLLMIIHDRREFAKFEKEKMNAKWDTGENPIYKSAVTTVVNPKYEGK

“intact cytotactin (CT) isolated from chicken brain or from fibroblast culture supernatant (from UniProt P10039 34-1808) (ligand)” was tested, and the inhibition of SL29 fibroblast attachment to intact CT/TN by GRGDTP (1 mg/ml) [1] was 33%, the inhibition of cell attachment to intact CT by soluble GRGDSP (1 mg/ml) [1] was 73% and the inhibition of cell attachment to intact CT by soluble GRGDTP (1 mg/ml) [1] was 70%.

Molecule “CTfg CT:GST fusion protein (fibrinogen domain of chicken cytotactin fused to GST) (from UniProt P10039 1568-1808)” has a decrease in DRG cell attachment to CTfg after preincubation with JG22 [2] of 19%.

With “CT: intact cytotactin isolated from chicken brain or fibroblast culture supernatant” the “percentage of DRG cells that sprouted neurites” value ([3]; DRG) was “About 50%”, the “percentage of DRG cells that sprouted neurites” value ([3]; DRG, listed as CT/TN) was 30% and the “% Sprouting” value ([3]; Table 4, DRG, neurites greater than one cell diameter) was 30 ± 3 %. The “Neurite Length” value ([3]; Table 4, DRG, per neurite-bearing cell) was 332 ± 177 microns, the “Percent Sprouting” value ([3]; Table 5, DRG, six experiments) was 30 ± 3 and the “Neurite Length (in microns)” value ([3]; Table 5, DRG, three experiments) was 332 ± 177 microns. The “forebrain cell attachment” value [4] was “low level of attachment”, the “forebrain neuron sprouting versus polylysine” value [4] was “did not support sprouting of neurites” and the “% Sprouting” value ([4]; Table 4, FB (forebrain) neurons) was 0%. For the same molecule, the “SL29 fibroblast attachment to coated substrate (words)” value [5] was “readily attached” and the “SL29 fibroblast attachment to coated substrate (words)” value ([5]; listed as CT/TN) was “bound well”.

In the case of “CTfn5-6 fusion protein spanning the fifth and sixth FN type III repeats of chicken cytotactin (from UniProt P08515 1-218)”, the inhibition of SL29 fibroblast binding to CTfn5-6 by mAb JG22 [2] is reported as 77%.

B1: CTfn3-6: single construct containing fibronectin type III repeats III and VI, SEQ ID NO 29 (protein, listed as Gallus gallus)
chain: LDAPSQIEAKDVTDTTALITWSKPLAEIEGIELTYGPKDVPGDRTTIDLSEDENQYSIGNLRPHTEYEYEVTLISRRGDMESDPAKEVFVTVVGSPKGISFSDITENSARVSWTPPRSRVDSYRVSYVPITGGTPNVVTVDGSKTRTKLVKLVPGVDYNVNIISVKGFEESE
In the case of B1, the “neurite promoting activity on DRG cells” value ([3]; DRG, low density) is reported as “significant increase both in the percentage of neurite-bearing cells and in neurite elongation” and the “neurite and cell morphology after 40 hours” value (DRG cells) is reported as “much longer and less fasciculated”.
